Measurements taken from patent publication US8741889B2, “Method of treating non-small cell lung cancer and colon cancer with gamma-secretase inhibitor” (Hoffmann-La Roche Inc, priority 2008, dated 2014).

System: A549 cells
Experiment: FACS cell cycle analysis in A549 cells
Assay type: cell-based, human
Protocol: The A549 cell line was obtained from the American Tissue Culture Collection (ATCC), Manassas, Va. and maintained in Ham's media supplemented with 10% heat-inactivated Fetal Bovine Serum (HI-FBS; GIBCO/BRL, Gaithersburg, Md.) and 2 mM L-glutamine (GIBCO/BRL). 1×10^6 A549 cells were seeded in […] plates for FACS analysis and 3×10^5 cells per well were seeded in 6-well plate for Western blot analysis. Cells were allowed to attach for 24 hours and then treated with compound (1) compound at the following concentrations: 0.1, 0.25, 0.5, 1, 2.5 and 5 μM. Cells were incubated for either 72 or 120 hours and collected for FACS analysis.
Cells were incubated with compound (1) for 72 or 120 hours, harvested by scraping, washed twice in phosphate-buffered saline (PBS), spun down at 1.5×10^3 rpm, and fixed at −20° C. overnight with 70% ethanol. Cells were then analyzed using MPM2-FITC and propidium iodide (PI) double staining (Becton Dickinson, San Jose, Calif.). Briefly, cells were washed twice with cold PBS containing 0.05% Tween-20 (PBST), incubated for 2 hours with anti-Phospho Ser/Thr MPM2 antibody (#05-368, Upstate/Millipore, Bullerica, Mass.), washed with PBST again, incubated in the dark with secondary IgG-FITC antibody (#AP308F, Chemicon, Temecula, Calif.), washed with PBST and incubated with PI/RNase solution (Becton Dickinson, San Jose, Calif.) for additional 30 min at 37° C.
Samples were analyzed on a FACScan flow cytometer (Becton Dickinson, San Jose, Calif.) equipped with a 488 nm argon ion laser. Green fluorescein isothiocyanate (FITC) fluorescence was collected with a 530/30 nm bandpass filter using logarithmic amplification and orange emission from propidium iodide (PI) was filtered through a 585/42 nm bandpass filter using linear amplification. A minimum of 20,000 events was collected on each sample. Cell cycle analysis of DNA histograms was performed with FlowJo software (Tree Star Inc., Ashland, Oreg.).

CC(C)(C(=O)NCC(F)(F)C(F)(F)F)C(=O)N[C@@H]1C(=O)Nc2ccccc2-c2ccccc21 [Compound (1), 2,2-Dimethyl-N—((S)-6-oxo-6,7-dihydro-5H-dibenzo[b,d]azepin-7-yl)-N′-(2,2,3,3,3-pentafluoro-propyl)-malonamide]
G1, % (0.10 μM, 72 hrs): 63.1%
G2/M, % (0.10 μM, 72 hrs): 23.3%
subG1, % (0.10 μM, 72 hrs): 6.5%
G1, % (0.10 μM, 120 hrs): 59.0%
G2/M, % (0.10 μM, 120 hrs): 24.1%
subG1, % (0.10 μM, 120 hrs): 6.8%
G1, % (0.25 μM, 72 hrs): 64.8%
G2/M, % (0.25 μM, 72 hrs): 20.3%
subG1, % (0.25 μM, 72 hrs): 5.9%
G1, % (0.25 μM, 120 hrs): 61.1%
G2/M, % (0.25 μM, 120 hrs): 23.8%
subG1, % (0.25 μM, 120 hrs): 6.7%
G1, % (0.50 μM, 72 hrs): 66.6%
G2/M, % (0.50 μM, 72 hrs): 19.4%
subG1, % (0.50 μM, 72 hrs): 4.3%
G1, % (0.50 μM, 120 hrs): 58.6%
G2/M, % (0.50 μM, 120 hrs): 23.3%
subG1, % (0.50 μM, 120 hrs): 9.6%
G1, % (1.0 μM, 72 hrs): 64%
G2/M, % (1.0 μM, 72 hrs): 21.5%
subG1, % (1.0 μM, 72 hrs): 6.6%
G1, % (1.0 μM, 120 hrs): 60.9%
G2/M, % (1.0 μM, 120 hrs): 19.8%
subG1, % (1.0 μM, 120 hrs): 8.0%
G1, % (5.0 μM, 72 hrs): 64.9%
G2/M, % (5.0 μM, 72 hrs): 20%
subG1, % (5.0 μM, 72 hrs): 8.4%
G1, % (5.0 μM, 120 hrs): 58.7%
G2/M, % (5.0 μM, 120 hrs): 18.3%
subG1, % (5.0 μM, 120 hrs): 13.7%
